Experimental data published in the supplement of paper PMC10307832.

Experiments:
Test in all cases: relative viability (nuclei count vs DMSO), 5 days (fraction); higher = more cells survive
[1] = test system: BEN
Summary of the method: (§1)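 One day after seeding in 1536-well plates, lung cancer cell lines were dosed by pin tool. Dosing was either single-drug or a fixed anchor-drug dose plus five library-drug doses (not always all listed) in √10 steps. After 5 days, nuclei were stained in one fix-and-stain step and counted on 4× images, and relative viability is the nuclei count of treated wells over that of vehicle wells, given as the median of duplicate plates.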

[2] = test system: COR-L 105
Summary of the method: as §1

[3] = test system: EKVX
Summary of the method: as §1

[4] = test system: EMC-BAC-2
Summary of the method: as §1

[5] = test system: EPLC-272H
Summary of the method: as §1

[6] = test system: HCC-78
Summary of the method: as §1

[7] = test system: HCC-827
Summary of the method: as §1

[8] = test system: LCLC-97TM1
Summary of the method: as §1

[9] = test system: LK-2
Summary of the method: as §1

[10] = test system: LOU-NH91
Summary of the method: as §1

[11] = test system: LU99A
Summary of the method: as §1

[12] = test system: NCI-H1650
Summary of the method: as §1

[13] = test system: NCI-H1792
Summary of the method: as §1

[14] = test system: NCI-H2087
Summary of the method: as §1

[15] = test system: NCI-H2126
Summary of the method: as §1

[16] = test system: NCI-H358
Summary of the method: as §1

[17] = test system: NCI-H522
Summary of the method: as §1

[18] = test system: NCI-H727
Summary of the method: as §1

[19] = test system: SK-MES-1
Summary of the method: as §1

[20] = test system: SW 1573
Summary of the method: as §1

[21] = test system: SW 900
Summary of the method: as §1

SMILES: COCC1(CO)C(=O)C2CCN1CC2 (stereo not drawn) [PRIMA-1MET] + CC(=O)Nc1cccc(-n2c(=O)n(C3CC3)c(=O)c3c(Nc4ccc(I)cc4F)n(C)c(=O)c(C)c32)c1 [Trametinib] (partner 0.02 µM)
- relative viability ([1]; first compound 0.2 µM): 1.12
- relative viability ([1]; first compound 0.6325 µM): 0.926
- relative viability ([1]; first compound 6.325 µM): 1.03
- relative viability ([1]; first compound 20 µM): 1.07
- relative viability ([2]; first compound 0.2 µM): 0.464
- relative viability ([2]; first compound 0.6325 µM): 0.421
- relative viability ([2]; first compound 2 µM): 0.378
- relative viability ([2]; first compound 6.325 µM): 0.438
- relative viability ([2]; first compound 20 µM): 0.108
- relative viability ([3]; first compound 0.2 µM): 0.344
- relative viability ([3]; first compound 2 µM): 0.283
- relative viability ([3]; first compound 6.325 µM): 0.233
- relative viability ([3]; first compound 20 µM): 0.243
- relative viability ([4]; first compound 0.2 µM): 0.637
- relative viability ([4]; first compound 0.6325 µM): 0.904
- relative viability ([4]; first compound 2 µM): 0.907
- relative viability ([4]; first compound 6.325 µM): 0.734
- relative viability ([4]; first compound 20 µM): 0.91
- relative viability ([5]; first compound 0.2 µM): 0.281
- relative viability ([5]; first compound 0.6325 µM): 0.303
- relative viability ([5]; first compound 2 µM): 0.272
- relative viability ([5]; first compound 6.325 µM): 0.29
- relative viability ([5]; first compound 20 µM): 0.216
- relative viability ([6]; first compound 0.2 µM): 0.676
- relative viability ([6]; first compound 0.6325 µM): 0.708
- relative viability ([6]; first compound 2 µM): 0.478
- relative viability ([6]; first compound 6.325 µM): 0.596
- relative viability ([6]; first compound 20 µM): 0.331
- relative viability ([7]; first compound 0.2 µM): 0.443
- relative viability ([7]; first compound 0.6325 µM): 0.523
- relative viability ([7]; first compound 2 µM): 0.474
- relative viability ([7]; first compound 6.325 µM): 0.461
- relative viability ([7]; first compound 20 µM): 0.481
- relative viability ([8]; first compound 0.2 µM): 0.133
- relative viability ([8]; first compound 0.6325 µM): 0.163
- relative viability ([8]; first compound 2 µM): 0.179
- relative viability ([8]; first compound 6.325 µM): 0.151
- relative viability ([8]; first compound 20 µM): 0.197
- relative viability ([9]; first compound 0.2 µM): 0.477
- relative viability ([9]; first compound 0.6325 µM): 0.766
- relative viability ([9]; first compound 2 µM): 0.357
- relative viability ([9]; first compound 6.325 µM): 0.455
- relative viability ([9]; first compound 20 µM): 0.199
- relative viability ([10]; first compound 0.2 µM): 0.842
- relative viability ([10]; first compound 0.6325 µM): 0.801
- relative viability ([10]; first compound 2 µM): 0.793
- relative viability ([10]; first compound 6.325 µM): 0.831
- relative viability ([10]; first compound 20 µM): 0.535
- relative viability ([11]; first compound 0.2 µM): 0.314
- relative viability ([11]; first compound 0.6325 µM): 0.573
- relative viability ([11]; first compound 2 µM): 0.502
- relative viability ([11]; first compound 6.325 µM): 0.261
- relative viability ([11]; first compound 20 µM): 0.21
- relative viability ([12]; first compound 0.2 µM): 0.545
- relative viability ([12]; first compound 0.6325 µM): 0.48
- relative viability ([12]; first compound 2 µM): 0.636
- relative viability ([12]; first compound 6.325 µM): 0.595
- relative viability ([12]; first compound 20 µM): 0.0646
- relative viability ([13]; first compound 0.2 µM): 0.413
- relative viability ([13]; first compound 6.325 µM): 0.434
- relative viability ([13]; first compound 20 µM): 0.54
- relative viability ([14]; first compound 0.6325 µM): 0.185
- relative viability ([14]; first compound 2 µM): 0.19
- relative viability ([14]; first compound 6.325 µM): 0.168
- relative viability ([14]; first compound 20 µM): 0.117
- relative viability ([15]; first compound 0.2 µM): 0.604
- relative viability ([15]; first compound 0.6325 µM): 0.47
- relative viability ([15]; first compound 2 µM): 0.597
- relative viability ([15]; first compound 6.325 µM): 0.577
- relative viability ([15]; first compound 20 µM): 0.543
- relative viability ([16]; first compound 0.2 µM): 0.137
- relative viability ([16]; first compound 0.6325 µM): 0.134
- relative viability ([16]; first compound 2 µM): 0.108
- relative viability ([16]; first compound 6.325 µM): 0.108
- relative viability ([16]; first compound 20 µM): 0.0807
- relative viability ([17]; first compound 0.2 µM): 0.655
- relative viability ([17]; first compound 0.6325 µM): 0.673
- relative viability ([17]; first compound 2 µM): 0.528
- relative viability ([17]; first compound 6.325 µM): 0.717
- relative viability ([17]; first compound 20 µM): 0.121
- relative viability ([18]; first compound 0.2 µM): 0.423
- relative viability ([18]; first compound 0.6325 µM): 0.322
- relative viability ([18]; first compound 6.325 µM): 0.413
- relative viability ([18]; first compound 20 µM): 0.377
- relative viability ([19]; first compound 0.2 µM): 0.609
- relative viability ([19]; first compound 0.6325 µM): 0.538
- relative viability ([19]; first compound 2 µM): 0.549
- relative viability ([19]; first compound 6.325 µM): 0.624
- relative viability ([19]; first compound 20 µM): 0.592
- relative viability ([20]; first compound 0.2 µM): 0.604
- relative viability ([20]; first compound 0.6325 µM): 0.54
- relative viability ([20]; first compound 2 µM): 0.409
- relative viability ([20]; first compound 6.325 µM): 0.0772
- relative viability ([20]; first compound 20 µM): 0.024
- relative viability ([21]; first compound 0.2 µM): 0.615
- relative viability ([21]; first compound 0.6325 µM): 0.765
- relative viability ([21]; first compound 6.325 µM): 0.676
- relative viability ([21]; first compound 20 µM): 0.131
